From ChEMBL document CHEMBL6109064, “Functional and structural polypharmacology of indazole-based privileged ligands to tackle the undruggability of membrane transporters” (Eur J Med Chem, 2025)

Assays:
[1] = target: ATP-dependent translocase ABCB1 (Homo sapiens, UniProt P08183); assay: Inhibition of ABCB1 in human A2780 ADR cells assessed as increase in calcein-AM fluorescence intensity using calcein-AM as tracer preincubated for 30 mins followed by calcein-AM addition and measured within 30 mins at 30s intervals by fluorescence based analysis; format: cell-based
[2] = target: T1, Broad substrate specificity ATP-binding cassette transporter ABCG2 (Homo sapiens, UniProt Q9UNQ0); assay: Inhibition of ABCG2 (unknown origin) expressed in dog MDCK-II-BCRP cells assessed as increase in Hoechst 33342 fluorescence intensity using Hoechst 33342 as tracer preincubated for 30 mins followed by Hoechst 33342 addition and measured after 120 mins by fluorescence based analysis; format: cell-based
T1 sequence (Q9UNQ0 whole entry): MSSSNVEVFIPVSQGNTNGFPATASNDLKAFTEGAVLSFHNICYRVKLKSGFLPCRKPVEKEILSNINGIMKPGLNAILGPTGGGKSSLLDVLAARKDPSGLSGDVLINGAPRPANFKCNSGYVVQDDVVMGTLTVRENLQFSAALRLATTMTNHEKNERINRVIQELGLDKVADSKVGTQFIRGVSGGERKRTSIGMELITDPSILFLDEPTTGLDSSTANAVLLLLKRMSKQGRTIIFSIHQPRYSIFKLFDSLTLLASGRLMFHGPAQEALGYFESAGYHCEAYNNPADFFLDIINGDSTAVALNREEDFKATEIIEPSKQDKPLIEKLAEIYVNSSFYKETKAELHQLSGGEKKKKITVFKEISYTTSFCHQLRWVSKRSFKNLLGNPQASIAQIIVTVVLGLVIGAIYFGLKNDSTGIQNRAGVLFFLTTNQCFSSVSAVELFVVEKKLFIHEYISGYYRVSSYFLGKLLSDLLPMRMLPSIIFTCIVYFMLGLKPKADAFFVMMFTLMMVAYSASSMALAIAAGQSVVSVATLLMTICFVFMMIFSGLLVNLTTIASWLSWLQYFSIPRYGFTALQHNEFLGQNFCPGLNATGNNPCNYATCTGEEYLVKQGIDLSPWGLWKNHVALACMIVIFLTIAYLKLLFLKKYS

[3] = target: T2, Solute carrier organic anion transporter family member 2B1 (Homo sapiens, UniProt O94956); assay: Inhibition of OATP2B1 (unknown origin) transfected in human A-431 cells assessed as inhibition of pyranine uptake preincubated for 5 mins followed by pyranine addition and measured after 15 mins by fluorescence based analysis; format: cell-based
T2 sequence (O94956 whole entry): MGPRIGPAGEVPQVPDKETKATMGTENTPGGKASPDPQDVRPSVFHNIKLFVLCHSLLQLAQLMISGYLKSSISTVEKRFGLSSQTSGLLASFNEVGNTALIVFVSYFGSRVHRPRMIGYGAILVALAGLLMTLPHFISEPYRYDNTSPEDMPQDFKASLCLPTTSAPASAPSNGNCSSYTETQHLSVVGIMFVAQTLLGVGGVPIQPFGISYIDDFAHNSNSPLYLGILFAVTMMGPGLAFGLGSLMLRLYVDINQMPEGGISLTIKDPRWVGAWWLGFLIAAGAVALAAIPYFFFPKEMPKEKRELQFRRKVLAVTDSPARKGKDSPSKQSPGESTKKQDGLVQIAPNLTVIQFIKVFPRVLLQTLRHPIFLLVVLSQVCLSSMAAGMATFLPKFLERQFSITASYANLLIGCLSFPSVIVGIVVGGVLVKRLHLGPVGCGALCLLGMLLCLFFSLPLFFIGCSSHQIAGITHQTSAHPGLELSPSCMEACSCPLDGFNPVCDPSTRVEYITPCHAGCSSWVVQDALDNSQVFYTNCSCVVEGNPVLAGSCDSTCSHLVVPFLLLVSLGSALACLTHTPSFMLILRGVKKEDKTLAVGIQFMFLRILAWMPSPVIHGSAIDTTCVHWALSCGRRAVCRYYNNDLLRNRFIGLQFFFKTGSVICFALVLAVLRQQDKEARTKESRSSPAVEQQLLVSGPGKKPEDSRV

[4] = Inhibition of ABCA1 (unknown origin) expressed in mouse J774.A1 cells assessed as inhibition of 25-NBD-cholesterol fluorescence intensity preincubated for 24 hrs followed by 25-NBD-cholesterol addition and measured after 48 hrs by flow cytometry; format: cell-based, Homo sapiens

ATP-dependent translocase ABCB1, sequence (P08183 whole entry): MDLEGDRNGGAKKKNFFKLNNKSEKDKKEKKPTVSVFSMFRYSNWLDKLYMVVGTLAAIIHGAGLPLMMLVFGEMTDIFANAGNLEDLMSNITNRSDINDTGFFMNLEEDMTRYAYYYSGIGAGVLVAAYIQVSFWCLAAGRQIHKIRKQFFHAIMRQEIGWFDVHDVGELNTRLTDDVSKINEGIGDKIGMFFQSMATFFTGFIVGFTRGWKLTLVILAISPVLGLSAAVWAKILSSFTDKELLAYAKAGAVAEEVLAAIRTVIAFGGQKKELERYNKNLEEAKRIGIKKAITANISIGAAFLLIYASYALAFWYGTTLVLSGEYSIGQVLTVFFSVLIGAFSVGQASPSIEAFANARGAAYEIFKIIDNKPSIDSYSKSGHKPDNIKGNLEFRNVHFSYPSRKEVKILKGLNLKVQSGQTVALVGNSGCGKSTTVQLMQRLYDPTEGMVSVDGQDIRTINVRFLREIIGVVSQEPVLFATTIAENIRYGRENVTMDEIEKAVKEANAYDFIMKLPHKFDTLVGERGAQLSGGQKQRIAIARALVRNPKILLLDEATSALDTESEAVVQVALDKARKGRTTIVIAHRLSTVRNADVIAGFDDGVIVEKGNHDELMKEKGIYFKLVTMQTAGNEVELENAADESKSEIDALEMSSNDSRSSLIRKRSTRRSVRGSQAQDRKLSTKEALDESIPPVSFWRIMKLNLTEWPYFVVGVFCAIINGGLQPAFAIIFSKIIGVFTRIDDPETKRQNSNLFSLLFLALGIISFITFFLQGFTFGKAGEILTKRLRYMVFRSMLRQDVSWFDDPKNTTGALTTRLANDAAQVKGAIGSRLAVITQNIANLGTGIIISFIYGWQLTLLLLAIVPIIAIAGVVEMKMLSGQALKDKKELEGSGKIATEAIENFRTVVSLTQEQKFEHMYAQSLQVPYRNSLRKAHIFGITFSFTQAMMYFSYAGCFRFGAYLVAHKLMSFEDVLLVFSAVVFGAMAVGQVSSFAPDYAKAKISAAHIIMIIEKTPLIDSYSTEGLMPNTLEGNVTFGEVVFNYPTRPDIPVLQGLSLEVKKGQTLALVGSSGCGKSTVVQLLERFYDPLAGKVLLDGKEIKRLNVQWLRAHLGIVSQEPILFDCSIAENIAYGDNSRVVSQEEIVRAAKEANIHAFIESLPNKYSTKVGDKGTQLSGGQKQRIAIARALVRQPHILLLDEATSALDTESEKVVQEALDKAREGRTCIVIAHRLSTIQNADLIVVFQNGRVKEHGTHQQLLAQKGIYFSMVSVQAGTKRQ

Row | IC50 [1] | IC50 [2] | IC50 [3] | IC50 ([4]; read-out: IC50) | IC50 [4] | SMILES
1 | 0.626 µM | 1.03 µM | 0.167 µM | 13 µM |  | O=C(Cn1nc(C(=O)Nc2ccccn2)c2ccccc21)Nc1cc(Cl)ccc1Cl
2 | 6.12 µM | 6.56 µM | 0.155 µM | 4.7 µM |  | O=C(Cn1nc(C(=O)Nc2cccnc2)c2ccccc21)Nc1ccc(Cl)cc1
3 | 1.1 µM | 2.07 µM | 0.583 µM |  | Not_active | COc1cccc(NC(=O)Cn2nc(C(=O)Nc3cccc(OC)c3)c3ccccc32)c1
4 | 1.56 µM | 6.29 µM | 0.124 µM |  | Not_active | COc1cccc(NC(=O)c2nn(CC(=O)Nc3ccccc3OC)c3ccccc23)c1
